Reference: patent publication US11613531B2, “Inhibitors of RHO associated coiled-coil containing protein kinase” (Kadmon Corporation, LLC, priority 2017, dated 2023)

Assays:
[1] = molecular target: Recombinant ROCK1 (amino acids 1-535) (Homo sapiens (Human), UniProt Q13464); test: Z′-Lyte kinase assay, ROCK1; assay type: biochemical; conditions: 9 points 2-fold serial dilution
How it was run: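 IC50s derive from nonlinear curve fits over a 9-point, 2-fold dilution series, with single-point inhibition at 1 μM expressed relative to DMSO. Activity of truncated human ROCK1 (residues 1-535) and ROCK2 (residues 1-552) measured with the Z′-Lyte kinase format.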

[2] = tested on: human ACTA2 gene promoter luciferase reporter in NIH3T3 cells; test: NIH3T3 Acta2-promoter driven-luciferase assay; assay type: cell-based; conditions: NIH3T3, 24 h, NIH3T3 cells, plus TGFβ1 for 24 hr; read-out: NIH3T3 Acta2-luc, IC50
How it was run: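 NIH3T3 cells stably carrying a human ACTA2 promoter (−1000-1 bp)-luciferase reporter, grown to confluence, treated 24 hr with compound plus TGFβ1 at 9-point serial dilution. Luciferase read after lysis; IC50 by nonlinear regression.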

[3] = tested on: phosphorylation of ROCK targets MLC and MYPT1 in A7R5 cells; test: Western blot of A7R5 cell lysates (ppMlc, MYPT1); assay type: cell-based, Rat; conditions: 110 nM, 90 min
Protocol: FIG. 1c. Western blot of A7R5 cell lysates to visualize ppMlc (T18/S19) levels following treatment with the compound of Example 192 (“Example 192”) for 90 min. A7R5 cells were treated with the compound and ppMlc (T18/S19) levels were visualized by western blotting.
A7R5 cells were treated with the compound of Example 192 for 90 min and ppMlc (T18/S19) levels were visualized by western blotting.

[4] = tested on: UUO-induced renal fibrosis in mice; test: Unilateral ureteral obstruction (UUO)-induced renal fibrosis model; assay type: in vivo; conditions: oral 3 mg/kg BID, 6 mg/kg BID and 10 mg/kg QD, Day 10, Masson's trichrome
Text: FIG. 11a. ROCK inhibitor is active in a mouse model of renal fibrosis. Representative images of kidney sections stained with Masson's trichrome to visualize collagen and fibrosis in mice treated with ROCK inhibitor in the ureteral obstruction (UUO) induced renal fibrosis mouse model.
FIG. 11b. Quantitation of the decrease in the interstitial fibrosis index in the histopathological analysis of the images from ROCK inhibitor and vehicle treated mice in the UUO induced renal fibrosis mouse model.
Unilateral Ureteral Obstruction (UUO)-Induced Renal Fibrosis Model in Mice
Male C57B/L6 mice were anesthetized with Isoflurane and placed in dorsal recumbency and the abdominal region was shaved and prepared for surgery with alternating scrub wipes of iodine or chlorhexidine scrub and 70% isopropyl alcohol. […] All animals were monitored closely for 3 days. […]
To assess the activity of ROCK inhibitors in modulation of additional organ fibrosis in an in vivo setting, ROCK inhibitor was tested in a UUO model of renal fibrosis. […] The animals were sacrificed on Day 10 following surgery and the extent of fibrosis was determined by histopathological analysis of fixed kidney sections stained with Masson's trichrome. […]
The improvement in the kidney fibrosis following UUO was quantitated based on the individual image scores by a pathologist blinded to the group assignments. […]

Recombinant ROCK1 (amino acids 1-535), sequence (Q13464 1-535): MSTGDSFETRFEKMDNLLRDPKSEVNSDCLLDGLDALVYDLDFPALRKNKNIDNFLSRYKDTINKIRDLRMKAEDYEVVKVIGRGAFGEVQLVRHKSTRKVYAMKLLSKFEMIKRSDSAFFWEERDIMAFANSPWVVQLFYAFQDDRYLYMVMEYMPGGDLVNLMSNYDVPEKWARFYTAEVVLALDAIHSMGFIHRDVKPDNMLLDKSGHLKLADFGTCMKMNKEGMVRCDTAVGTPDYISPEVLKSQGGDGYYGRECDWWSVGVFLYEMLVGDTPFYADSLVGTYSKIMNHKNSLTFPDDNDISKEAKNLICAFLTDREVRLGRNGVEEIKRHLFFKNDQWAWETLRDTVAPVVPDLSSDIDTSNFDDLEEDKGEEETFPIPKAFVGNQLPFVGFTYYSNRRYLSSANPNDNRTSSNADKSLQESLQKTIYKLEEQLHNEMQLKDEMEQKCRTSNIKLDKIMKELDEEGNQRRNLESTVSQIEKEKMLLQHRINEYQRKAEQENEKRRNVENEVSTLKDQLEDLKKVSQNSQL

Clc1cnc(N2C3CCC2CNC3)nc1Nc1ccc2[nH]ncc2c1 [Example 192, N-(2-(3,8-diazabicyclo[3.2.1]octan-8-yl)-5-chloropyrimidin-4-yl)-1H-indazol-5-amine]
IC50 [1]: 5 nM | IC50 [2]: 189 nM | phosphorylation of ROCK targets MLC and MYPT1 [3]: efficiently blocked | amount of interstitial collagen in the obstructed kidney [4]: significantly lower
